Test results: patent US20080107722A1, “Method For Loading Multiple Agents Into Delivery Vehicles” (priority 2004, published 2008)

Experiments:
[1] = Simultaneous loading of FUDR and daunorubicin into preformed DSPC/DSPG/Cholesterol liposomes; format: physicochemical; conditions: 50° C.; for loading in liposomes: 100 mM Cu(II)gluconate pH 7.0, FIG. 3; for retention during the course of the experiment: FIG. 3
Protocol: (§1) At various time points after initiation of drug loading, aliquots were removed and passed through a Sephadex® G-50 spin column to separate free from encapsulated drug. To a specified volume of eluant, Triton X-100 or N-ocyl beta-D-glucopyranoside (OGP) was added to solubilize the liposomes. Following addition of detergent, the mixture was heated to the cloud point of the detergent and allowed to cool to room temperature before measurement of the absorbance or fluorescence. Drug concentrations were calculated by comparison to a standard curve. Lipid levels were measured by liquid scintillation counting.
FUDR and daunorubicin were loaded at 50° C. into pre-formed DSPC/DSPG/Cholesterol liposomes (70:20:10) containing 100 mM Cu(II)gluconate adjusted to pH 7.0 with triethanolamine (TEA). The liposomes were buffer exchanged into 300 mM sucrose, 40 mM phosphate, 1 mM EDTA, pH 7.0 by crossflow dialysis to remove any copper(II)gluconate from the extraliposomal solution. Prior to addition of drugs, the liposomes were diluted in SPE and preheated at 50° C. for one minute. FUDR (with trace amounts of ^3H-FUDR) and daunorubicin were combined then added simultaneously to the pre-heated liposomes. FUDR was added at a drug concentration of 60 μmol/mL and daunorubicin was added at a drug-to-lipid mole ratio of 0.1:1. […] Aliquots were removed and analyzed for drug and lipid content at designated time intervals. The extent of daunorubicin loading was determined spectrophotometrically and FUDR and lipid levels were determined by liquid scintillation counting.

[2] = Simultaneous loading of irinotecan and floxuridine into low cholesterol DSPC/DSPG/Cholesterol liposomes (data not shown); format: physicochemical; conditions: low cholesterol-containing DSPC/DSPG/Cholesterol liposomes
[3] = Simultaneous loading of FUDR and cpt-11 into DSPC/Cholesterol (high-cholesterol) liposomes; format: physicochemical; conditions: 50° C.; for loading in liposomes: DSPC/Cholesterol, 100 mM Cu(II)gluconate pH 7.0; for drug ratio of FUDR-to-cpt-11 during the course of the experiment: FIG. 6
Protocol: as §1
Lipid films of DSPC/Cholesterol at a mole ratio of 55:45 were prepared as previously described and then hydrated in 100 mM Cu(II)gluconate, adjusted to pH 7.0 with triethanolamine (TEA). The liposomes were buffer exchanged into SPE, pH 7.0. Prior to addition of drugs, the liposomes were preheated to 50° C. for one minute. FUDR (with tracer amounts of ^3H-FUDR) and cpt-11 were combined then added simultaneously to the pre-heated liposomes. FUDR was added to a final drug concentration of 110 μmol/mL and cpt-11 was added to a final drug concentration of 7.5 μmol/mL. The liposomes and drugs were incubated for one hour to allow for the passive uptake of FUDR concurrent with the active uptake of Irinotecan. Aliquots were removed and analyzed for drug and lipid content at designated time intervals. The extent of cpt-11 loading was determined spectrophotometrically and FUDR and lipid levels were determined by liquid scintillation counting.

[4] = Simultaneous loading of cytarabine and daunorubicin into DSPC/DSPG/Cholesterol liposomes, effect of internal Cu(II)gluconate concentration; format: physicochemical; conditions: 50° C.; for daunorubicin loading (percent encapsulation): FIG. 2B
Protocol: (§2) Lipids were dissolved in chloroform:methanol:water (95:4:1 vol/vol/vol) and subsequently dried under a stream of nitrogen gas and placed in a vacuum pump to remove solvent. Unless otherwise specified, trace levels of radioactive lipid ^14C-DPPC was added to quantify lipid during the formulation process. The resulting lipid film was placed under high vacuum for a minimum of 2 hours. The lipid film was hydrated in the solution indicated to form multilamellar vesicles (MLVs). The resulting preparation was extruded 10 times through stacked polycarbonate filters with an extrusion apparatus (Lipex Biomembranes, Vancouver, BC) to achieve a mean liposome size between 80 and 150 nm. All constituent lipids of liposomes are reported in mole %.
as §1
Lipid films of DSPC/DSPG/Cholesterol at a mole ratio of 70:20:10 were prepared as described above in the method section. The lipid films were hydrated in the designated Cu(II)gluconate concentration and adjusted to pH 7.0 with triethanolamine (TEA). The liposomes were buffer exchanged into 300 mM sucrose, 20 mM sodium phosphate, pH 7.0 by crossflow dialysis to remove any copper(II)gluconate from the extraliposomal solution. Prior to addition of drugs, the liposomes were diluted in SPE and preheated at 50° C. for one minute. […] Aliquots were removed and analyzed for drug and lipid content at designated time intervals. The extent of daunorubicin loading was determined spectrophotometrically and cytarabine and lipid levels were determined by liquid scintillation counting.

[5] = Simultaneous loading of cytarabine and daunorubicin into preformed DSPC/DSPG/Cholesterol (70:20:10) liposomes, effect of temperature; format: physicochemical; conditions: for loading and retention in liposomes: 40° C., 100 mM Cu(II)gluconate pH 7.4 inside, FIG. 1A
Protocol: as §2, §1
Lipid films of DSPC/DSPG/Cholesterol at a mole ratio of 70:20:10 were prepared as described above in the method section. The lipid films were hydrated in 100 mM Cu(II)gluconate adjusted to pH 7.4 with triethanolamine (TEA) and extruded at 70° C. The liposomes were buffer exchanged into 300 mM sucrose, 20 mM phosphate, 1 mM EDTA (SPE), pH 7.4 by crossflow dialysis to remove any copper(II)gluconate from the extraliposomal solution. Prior to addition of drugs, the liposomes were preheated to the appropriate loading temperature for one minute. […] Aliquots were removed and analyzed for drug and lipid content at designated time intervals.

[6] = Simultaneous loading of daunorubicin and cytarabine into DMPC/Cholesterol liposomes by citrate pH-gradient; format: physicochemical; conditions: 45° C. versus room temperature or 40° C., 300 mM citrate pH 4 inside, FIG. 5
Protocol: as §1
Aliquots were removed and analyzed for drug and lipid content at designated time intervals.

[7] = Simultaneous loading of gemcitabine and doxorubicin into preformed liposomes; format: physicochemical; conditions: for loading and retention in liposomes: 60° C., DSPC/DSPG/Cholesterol 70:20:10, FIG. 4C; for simultaneous loading in high cholesterol-containing liposomes: DMPC/Cholesterol liposomes
Protocol: as §1
Gemcitabine and doxorubicin were loaded into DSPC/DSPG/Cholesterol liposomes at 37° C., 50° C. and 60° C. […] The lipid films were hydrated in 100 mM Cu(II)gluconate, adjusted to pH 7.4 with triethanolamine (TEA) and extruded at 70° C. The liposomes were buffer exchanged into HBS, pH 7.4 by crossflow dialysis. Prior to addition of drugs, the liposomes were preheated to the appropriate loading temperature for one minute. Gemcitabine (with tracer amounts of ^3H-gemcitabine) and doxorubicin were combined then added simultaneously to the pre-heated liposomes. Gemcitabine was added to a drug concentration of 30 μmol/mL and doxorubicin was added to a drug concentration of 33 μmol/mL. […] Aliquots were removed and analyzed for drug and lipid content at designated time intervals. The extent of doxorubicin loading was determined spectrophotometrically and gemcitabine and lipid levels were determined by liquid scintillation counting.

[8] = passive then Na+/K+ gradient with valinomycin; cited from earlier work
[9] = co-loaded with mitoxantrone in a single liposome; cited from earlier work
[10] = 37° C., DSPC/DSPG/Cholesterol 70:20:10, FIG. 4A
[11] = 50° C., DSPC/DSPG/Cholesterol 70:20:10, FIG. 4B

For `O=c1[nH]c(=O)n([C@H]2C[C@H](O)[C@@H](CO)O2)cc1F` [FUDR, Floxuridine], the loading in liposomes [1] was “loaded to sufficient levels”, the “retention during the course of the experiment” value [1] was “well maintained” and the loading in liposomes [2] was “sufficient”. For the same molecule, the loading in liposomes [3] was “effectively loaded” and the “drug ratio of FUDR-to-cpt-11 during the course of the experiment” value [3] was “maintained at a sufficient level”.

For `CCc1c2c(nc3ccc(OC(=O)N4CCC(N5CCCCC5)CC4)cc13)-c1cc3c(c(=O)n1C2)COC(=O)[C@]3(O)CC` [cpt-11, irinotecan], the loading in liposomes [2] was “sufficient”, the loading in liposomes [3] was “effectively loaded” and the “drug ratio of FUDR-to-cpt-11 during the course of the experiment” value [3] was “maintained at a sufficient level”.

In the case of `Nc1ccn([C@@H]2O[C@H](CO)[C@@H](O)[C@@H]2O)c(=O)n1` [cytarabine], the “cytarabine loading during simultaneous uptake of daunorubicin” value ([4]; 25, 50, 75 and 100 mM Cu(II)gluconate, FIG. 2A) is reported as “sufficient”, the “extent of cytarabine loading” value ([4]; 25 and 50 mM versus 75 mM and 100 mM Cu(II)gluconate, FIG. 2A) is reported as “improved” and the “loading and retention in liposomes” value [5] is reported as “less than desirable”. For the same molecule, the loading in liposomes ([5]; 50° C., FIG. 1B) was “load to adequate levels”, the “retention in liposomes during the experiment” value ([5]; 50° C., FIG. 1B) was “effectively retained” and the loading in liposomes ([5]; 60° C., FIG. 1C) was “compromised compared to loading at 50 °C”.

With `COc1cccc2c1C(=O)c1c(O)c3c(c(O)c1C2=O)C[C@@](O)(C(C)=O)C[C@@H]3O[C@H]1C[C@H](N)[C@H](O)[C@H](C)O1` [daunorubicin] the loading in liposomes [1] was “loaded to sufficient levels”, the “retention during the course of the experiment” value [1] was “well maintained” and the simultaneous loading efficiency [6] was “more efficient”. The “daunorubicin loading (percent encapsulation)” value ([4]; 25 mM copper gluconate) was “compromised”, the “daunorubicin loading (percent encapsulation)” value ([4]; 100 mM, 75 mM and 50 mM copper gluconate) was “sufficient” and the “loading and retention in liposomes” value [5] was “efficiently loaded and retained”. The loading in liposomes ([5]; 50° C., FIG. 1B) was “load to adequate levels”, the “retention in liposomes during the experiment” value ([5]; 50° C., FIG. 1B) was “effectively retained” and the loading in liposomes ([5]; 60° C., FIG. 1C) was “loads at this temperature”. The retention in liposomes ([5]; 60° C., FIG. 1C) was “not well-retained”.

In the case of `COc1cccc2c1C(=O)c1c(O)c3c(c(O)c1C2=O)C[C@@](O)(C(=O)CO)C[C@@H]3O[C@H]1C[C@H](N)[C@H](O)[C@H](C)O1` [doxorubicin], the loading in liposomes [7, 10] is reported as “did not load to sufficient levels”, the loading in liposomes [7, 11] is reported as “superior to the gemcitabine loading” and the “loading and retention in liposomes” value [7] is reported as “Optimal loading and retention”. For the same molecule, the “simultaneous loading in high cholesterol-containing liposomes” value [7] was “hindered by aggregation”.

In the case of `Nc1ccn([C@@H]2O[C@H](CO)[C@@H](O)C2(F)F)c(=O)n1` [gemcitabine, Gemcitabine], the loading in liposomes [7, 10] is reported as “could load effectively”, the loading in liposomes [7, 11] is reported as “load to minimal levels and then quickly leaks” and the “loading and retention in liposomes” value [7] is reported as “Optimal loading and retention”. For the same molecule, the “simultaneous loading in high cholesterol-containing liposomes” value [7] was “hindered by aggregation”.

In the case of `CN(Cc1cnc2nc(N)nc(N)c2n1)c1ccc(C(=O)N[C@@H](CCC(=O)O)C(=O)O)cc1` [methotrexate], the available drug encapsulated [8] is listed as 33%.

In the case of `CC[C@]1(O)C[C@H]2CN(CCc3c([nH]c4ccccc34)[C@@](C(=O)OC)(c3cc4c(cc3OC)N(C=O)[C@H]3[C@@](O)(C(=O)OC)[C@H](OC(C)=O)[C@]5(CC)C=CCN6CC[C@]43[C@@H]65)C2)C1` [vincristine], the “release of entrapped drug in vivo” value [9] is given as “rapid release”.
